Test results published in patent publication US20260234144A1 (TAY THERAPEUTICS LIMITED, priority 2023, published 2026).

System: R223X stop codon in the mutated luciferase gene, ADXC8 luciferase reporter cell line
Experiment: cells
Format: cell-based
Details: ADXC8 cells, 24 hours; for Emax / EC (100% of 200 uM G418 response): 24 h; for Emax: read-out: Fold Over Control, maximum fold response relative to 200 μM G418; for EC (100% of 200 uM G418 response): read-out: pC100%, negative logarithm of the concentration giving the same response as 200 μM G418

| SMILES | Emax [%] | EC (100% of 200 uM G418 response) [µM] | Fold Over Control (maximum fold response relative to 200 μM G418) | pC100% (negative logarithm of the concentration giving the same response as 200 μM G418) |
| --- | --- | --- | --- | --- |
| CN1CCC(Nc2nc(N)c3cc(-c4ccn[nH]4)cnc3n2)CC1 [Example 646] | 0 to 100 | > 100 | – | – |
| CN1CCC(Nc2nc(N)c3ccc(Nc4ccccc4)nc3n2)CC1 [Example 35, N^2-(1-methylpiperidin-4-yl)-N^7-phenylpyrido[2,3-d]pyrimidine-2,4,7-triamine] | 0 to 100 | > 100 | – | – |
| CNc1nc(N[C@H]2CN[C@H](CF)C2)nc2nc(C)cc(C)c12 [Example 413] | – | 0.1 to 1 | – | – |
| CNc1nc(NC2(CO)CCNC2)nc2nc(C)cc(C)c12 (single isomer, unassigned) [Example 440] | – | – | # (Fold over Ctrl ≥ 0 ≤ 1) | * (pC100 ≤ 4.5) |
| Cc1cc(C)c2c(N)nc(NC3CCN(Cc4ccc(C#N)cc4F)CC3)nc2n1 [Example 571] | 100 to 3000 | 1 to 10 | – | – |
| CN1CCC(Nc2nc(N)c3ccc(-c4cccc(S(C)(=O)=O)c4)nc3n2)CC1 [Example 97] | – | 10 to 100 | – | – |
| Cc1cc(-c2ccccc2)nc2nc(NCCCN3CCOCC3)nc(N)c12 [Example 120, 5-methyl-N2-(3-morpholinopropyl)-7-phenylpyrido[2,3-d]pyrimidine-2,4-diamine] | 100 to 3000 | 1 to 10 | – | – |
| COCc1ccnc2nc(NC3CCN(C)CC3)nc(N)c12 [Example 248, 5-(methoxymethyl)-N^2-(1-methylpiperidin-4-yl)pyrido[2,3-d]pyrimidine-2,4-diamine] | 0 to 100 | > 100 | – | – |
| Cc1cc(C)c2c(N)nc(NC3CCNCC3(C)C)nc2n1 (stereo not drawn) [Example 212] | 100 to 3000 | 1 to 10 | – | – |
| Cc1cc(C)c2c(N)nc(N[C@@H]3CCCC[C@H]3N(C)C)nc2n1 [Example 181] | 0 to 100 | > 31.6 | – | – |
| CNc1nc(N[C@H]2CN(C)C[C@@H]2OC(=O)C(C)C)nc2nc3c(c(C)c12)CCC3 [Example 684, (3S,4S)-1-methyl-4-((5-methyl-4-(methylamino)-7,8-dihydro-6H-cyclopenta[5,6]pyrido[2,3-d]pyrimidin-2-yl)amino)pyrrolidin-3-yl isobutyrate] | 100 to 3000 | 0.1 to 1 | – | – |
| Cc1cc(C)c2c(N)nc(NC3CCN(Cc4ccc(C#N)cc4Br)CC3)nc2n1 [Example 561] | 100 to 3000 | 1 to 10 | – | – |
| Cc1cc(C)c2c(N)nc(NCCCN3CCS(=O)(=O)CC3)nc2n1 [Example 8, 4-(3-((4-amino-5,7-dimethylpyrido[2,3-d]pyrimidin-2-yl)amino)propyl)thiomorpholine 1,1-dioxide] | 0 to 100 | > 100 | – | – |
| Cc1cc(C)c2c(N)nc(NCC3CCCCN3C)nc2n1 (stereo not drawn) [Example 144] | 100 to 3000 | 1 to 10 | – | – |
| CN1CCC(Nc2nc(N)c3cc(C4CCCC4)cnc3n2)CC1 [Example 243, 6-cyclopentyl-N^2-(1-methylpiperidin-4-yl)pyrido[2,3-d]pyrimidine-2,4-diamine] | 100 to 3000 | 10 to 100 | – | – |
| CN1CCC(Nc2nc(N)c3ccc(-c4ccc(F)cc4F)nc3n2)CC1 [Example 85] | – | 1 to 10 | – | – |
| CN1CCC(Nc2nc(N)c3cc(C(F)(F)F)cnc3n2)CC1 [Example 19, N^2-(1-methylpiperidin-4-yl)-6-(trifluoromethyl)pyrido[2,3-d]pyrimidine-2,4-diamine] | 0 to 100 | > 100 | – | – |
| CN1CCC(Nc2nc(N)c3ccc(-c4ccccc4C(=O)N(C)C)nc3n2)CC1 [Example 75] | 0 to 100 | > 100 | – | – |
| CCNc1nc(N[C@H]2CNC[C@@H]2O)nc2nc(C)cc(C)c12 [Example 392] | – | 1 to 10 | – | – |
| CNc1nc(N[C@@H]2CCNC2)nc2nc(C)cc(C)c12 [Example 294] | – | 0.1 to 1 | – | – |
| Cc1cc(C)c2c(N)nc(NC3CCN(C(C)c4ccccc4)CC3)nc2n1 (single isomer, unassigned) [Example 502] | 100 to 3000 | 0.1 to 1 | – | – |

| SMILES | Emax [%] | EC (100% of 200 uM G418 response) [µM] | Fold Over Control (maximum fold response relative to 200 μM G418) | pC100% (negative logarithm of the concentration giving the same response as 200 μM G418) |
| --- | --- | --- | --- | --- |
| CN1CCC(Nc2nc(N)c3ccc(-c4ccnnc4)nc3n2)CC1 [Example 61] | 0 to 100 | > 100 | – | – |
| CN1CCC(Nc2nc(N)c3ccc(-c4ccc(C(F)(F)F)cc4)nc3n2)CC1 [Example 66] | 0 to 100 | > 100 | – | – |
| Cc1cc(C)c2c(N)nc(NC3CCN(C4CC4)CC3)nc2n1 [Example 146] | 100 to 3000 | 1 to 10 | – | – |
| CNc1nc(NCC23CCCN2CCC3)nc2nc(C)cc(C)c12 [Example 600] | 0 to 100 | > 31.6 | – | – |
| CNc1nc(N[C@H]2CNCC[C@@H]2O)nc2nc(C)cc(C)c12 [Example 608] | – | 1 to 10 | – | – |
| Cc1cc(C)c2c(N)cc(NCCCN3CCOCC3)nc2n1 [Example 300] | 100 to 3000 | 1 to 10 | – | – |
| COCc1ccccc1CN1CCC(Nc2nc(N)c3c(C)cc(C)nc3n2)CC1 [Example 455] | 100 to 3000 | 1 to 10 | – | – |
| CNc1nc(NC2CN3CCC2C3)nc2nc(C)cc(C)c12 (stereo not drawn) [Example 449] | 0 to 100 | > 31.6 | – | – |
| CC(C)c1ccnc2nc(NC3CCN(C)CC3)nc(N)c12 [Example 246, 5-isopropyl-N^2-(1-methylpiperidin-4-yl)pyrido[2,3-d]pyrimidine-2,4-diamine] | 0 to 100 | > 100 | – | – |
| CN1CCC(Nc2nc(N)c3ccc(-c4cnn(C)c4)nc3n2)CC1 [Example 26, 7-(1-methyl-1H-pyrazol-4-yl)-N^2-(1-methylpiperidin-4-yl)pyrido[2,3-d]pyrimidine-2,4-diamine] | 0 to 100 | > 100 | – | – |
| CNc1nc(NC2C[C@@H]3CCC2N3)nc2nc(C)cc(C)c12 (stereo partly drawn) [Example 383] | – | 1 to 10 | – | – |
| CN1CCC(Nc2nc(N)c3cc(-c4cnn(C)c4)cnc3n2)CC1 [Example 679] | 0 to 100 | > 100 | – | – |
| CC(=O)Nc1cc(C#N)ccc1CN1CCC(Nc2nc(N)c3c(C)cc(C)nc3n2)CC1 [Example 511, N-(2-((4-((4-amino-5,7-dimethylpyrido[2,3-d]pyrimidin-2-yl)amino)piperidin-1-yl)methyl)-5-cyanophenyl)acetamide] | 100 to 3000 | 1 to 10 | – | – |
| CNc1nc(NC2CNCC23COC3)nc2nc(C)cc(C)c12 (stereo not drawn) [Example 410] | 0 to 100 | > 31.6 | – | – |
| CNc1nc(N[C@H]2CN(C)CC[C@H]2OC)nc2nc(C)cc(C)c12 [Example 591] | 100 to 3000 | 0.1 to 1 | – | – |
| Cc1cc(C)c2c(N)nc(NC3CCN(Cc4cnco4)CC3)nc2n1 [Example 474] | 100 to 3000 | 10 to 100 | – | – |
| CN(C)Cc1cccc(-c2ccc3c(N)nc(NC4CCN(C)CC4)nc3n2)c1 [Example 76] | 100 to 3000 | 10 to 100 | – | – |
| CN1CCC(Nc2nc(N)c3ccc(-c4ccc(C(N)=O)cc4)nc3n2)CC1 [Example 51] | 0 to 100 | > 100 | – | – |
| CNc1nc(NCC23CCC[C@H]2N(C)CC3)nc2nc(C)cc(C)c12 (stereo partly drawn) [Example 405] | 100 to 3000 | 1 to 10 | – | – |
| Cc1cc(C)c2c(N)nc(NC3CCN(Cc4ccc(CO)cc4)CC3)nc2n1 [Example 481] | 100 to 3000 | 1 to 10 | – | – |
